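Test compounds were applied to cells in 96-well plates for 48 hours at 5 doses. GI50 = concentration required for 50% inhibition of growth.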 Active and inactive are the calls of the source. Rule as the data show it: active = GI50 up to about 1.1 µM and inactive = higher.
Tests used:
Test in all cases: NCI tumour cell line growth inhibition, 48 h
786-0 = test system: 786-0
A498 = test system: A498
A549 = test system: A549
ACHN = test system: ACHN
BT-549 = test system: BT-549
CAKI-1 = test system: CAKI-1
CCRF-CEM = test system: CCRF-CEM
COLO 205 = test system: COLO 205
DU-145 = test system: DU-145
EKVX = test system: EKVX
HCC 2998 = test system: HCC 2998
HCT-116 = test system: HCT-116
HCT-15 = test system: HCT-15
HL-60 = test system: HL-60
HOP-62 = test system: HOP-62
HOP-92 = test system: HOP-92
HT-29 = test system: HT-29
Hs-578T = test system: Hs-578T
IGROV-1 = test system: IGROV-1
KM12 = test system: KM12
LOX IMVI = test system: LOX IMVI
M14 = test system: M14
MDA-MB-231 = test system: MDA-MB-231
MDA-MB-435 = test system: MDA-MB-435
MOLT-4 = test system: MOLT-4
Malme-3M = test system: Malme-3M
NCI-H226 = test system: NCI-H226
NCI-H23 = test system: NCI-H23
NCI-H460 = test system: NCI-H460
NCI/ADR-RES = test system: NCI/ADR-RES
OVCAR-3 = test system: OVCAR-3
OVCAR-4 = test system: OVCAR-4
OVCAR-5 = test system: OVCAR-5
OVCAR-8 = test system: OVCAR-8
PC-3 = test system: PC-3
RPMI-8226 = test system: RPMI-8226
SF-268 = test system: SF-268
SF-295 = test system: SF-295
SK-MEL-28 = test system: SK-MEL-28
SK-MEL-2 = test system: SK-MEL-2
SK-MEL-5 = test system: SK-MEL-5
SK-OV-3 = test system: SK-OV-3
SNB-19 = test system: SNB-19
SNB-75 = test system: SNB-75
SR = test system: SR
SW-620 = test system: SW-620
T47D = test system: T47D
TK-10 = test system: TK-10
U-251 = test system: U-251
UACC-257 = test system: UACC-257
UACC-62 = test system: UACC-62
UO-31 = test system: UO-31
K562 = test system: K562
MCF7 = test system: MCF7
NCI-H522 = test system: NCI-H522
SF-539 = test system: SF-539
SN12C = test system: SN12C
MDA-N = test system: MDA-N
RXF 393 = test system: RXF 393

For `O=C(CC(c1ccccc1)C(C(=O)c1ccncc1)C(CC(=O)c1ccncc1)c1ccccc1)c1ccncc1` (stereo unspecified), the GI50 (786-0) was 68.2 µM (inactive), the GI50 (A498) was 71.8 µM (inactive) and the GI50 (A549) was 26.7 µM (inactive). The GI50 (ACHN) was 70 µM (inactive), the GI50 (BT-549) was 18.5 µM (inactive) and the GI50 (CAKI-1) was > 100 µM (inactive). The GI50 (CCRF-CEM) was > 100 µM (inactive), the GI50 (COLO 205) was > 100 µM (inactive) and the GI50 (DU-145) was 96.6 µM (inactive). The GI50 (EKVX) was 34.6 µM (inactive), the GI50 (HCC 2998) was > 100 µM (inactive) and the GI50 (HCT-116) was > 100 µM (inactive). The GI50 (HCT-15) was > 100 µM, the GI50 (HL-60) was > 100 µM (inactive) and the GI50 (HOP-62) was 44.5 µM (inactive). The GI50 (HOP-92) was 48.3 µM (inactive), the GI50 (HT-29) was > 100 µM (inactive) and the GI50 (Hs-578T) was 30 µM (inactive). For the same molecule, the GI50 (IGROV-1) was 28.4 µM (inactive), the GI50 (KM12) was > 100 µM (inactive) and the GI50 (LOX IMVI) was > 100 µM (inactive). The GI50 (M14) was > 100 µM (inactive), the GI50 (MDA-MB-231) was 31.6 µM (inactive) and the GI50 (MDA-MB-435) was > 100 µM (inactive). For the same molecule, the GI50 (MOLT-4) was > 100 µM (inactive), the GI50 (Malme-3M) was > 100 µM (inactive) and the GI50 (NCI-H226) was 38.5 µM (inactive). The GI50 (NCI-H23) was 35 µM (inactive), the GI50 (NCI-H460) was 89.5 µM (inactive) and the GI50 (NCI/ADR-RES) was 49.3 µM (inactive). The GI50 (OVCAR-3) was 75.9 µM (inactive), the GI50 (OVCAR-4) was > 10 µM (inactive) and the GI50 (OVCAR-5) was > 100 µM (inactive). For the same molecule, the GI50 (OVCAR-8) was 35.6 µM (inactive), the GI50 (PC-3) was 46.2 µM (inactive) and the GI50 (RPMI-8226) was > 100 µM (inactive). For the same molecule, the GI50 (SF-268) was 32.4 µM (inactive), the GI50 (SF-295) was 29.8 µM (inactive) and the GI50 (SK-MEL-28) was > 100 µM (inactive). The GI50 (SK-MEL-2) was 78.7 µM (inactive), the GI50 (SK-MEL-5) was > 10 µM (inactive) and the GI50 (SK-OV-3) was 29.2 µM (inactive). For the same molecule, the GI50 (SNB-19) was 39 µM (inactive), the GI50 (SNB-75) was 23.7 µM (inactive) and the GI50 (SR) was > 100 µM (inactive). For the same molecule, the GI50 (SW-620) was > 100 µM (inactive), the GI50 (T47D) was 29.4 µM (inactive) and the GI50 (TK-10) was 47.5 µM (inactive). For the same molecule, the GI50 (U-251) was 42.8 µM (inactive), the GI50 (UACC-257) was > 100 µM (inactive) and the GI50 (UACC-62) was 86.1 µM (inactive). The GI50 (UO-31) was > 100 µM (inactive).
For `ClCCN(CCCl)c1ccc(/C=N/Nc2ccnc3ccccc23)cc1`, the GI50 (786-0) was 1.78 µM (inactive), the GI50 (A498) was 20.3 µM (inactive) and the GI50 (A549) was 1.63 µM (inactive). For the same molecule, the GI50 (ACHN) was 1.84 µM (inactive), the GI50 (BT-549) was 2 µM (inactive) and the GI50 (CAKI-1) was 2.18 µM (inactive). For the same molecule, the GI50 (CCRF-CEM) was 1.49 µM (inactive), the GI50 (COLO 205) was 1.86 µM (inactive) and the GI50 (DU-145) was 1.8 µM (inactive). The GI50 (EKVX) was 2.39 µM (inactive), the GI50 (HCC 2998) was 3.26 µM (inactive) and the GI50 (HCT-116) was 1.21 µM (inactive). For the same molecule, the GI50 (HCT-15) was 1.35 µM, the GI50 (HOP-62) was 2.07 µM (inactive) and the GI50 (HOP-92) was 1.64 µM (inactive). The GI50 (HT-29) was 0.736 µM (active), the GI50 (Hs-578T) was 2.23 µM (inactive) and the GI50 (IGROV-1) was 1.65 µM (inactive). For the same molecule, the GI50 (K562) was 1.39 µM (inactive), the GI50 (KM12) was 1.58 µM (inactive) and the GI50 (LOX IMVI) was 1.44 µM (inactive). For the same molecule, the GI50 (M14) was 2.02 µM (inactive), the GI50 (MCF7) was 3.03 µM (inactive) and the GI50 (MDA-MB-231) was 1.89 µM (inactive). For the same molecule, the GI50 (MDA-MB-435) was 1.53 µM (inactive), the GI50 (MOLT-4) was 1.13 µM (inactive) and the GI50 (Malme-3M) was 1.49 µM (inactive). For the same molecule, the GI50 (NCI-H226) was 1.89 µM (inactive), the GI50 (NCI-H23) was 2.01 µM (inactive) and the GI50 (NCI-H460) was 2.73 µM (inactive). The GI50 (NCI-H522) was 1.83 µM (inactive), the GI50 (NCI/ADR-RES) was 1.9 µM (inactive) and the GI50 (OVCAR-3) was 1.88 µM (inactive). The GI50 (OVCAR-4) was 1.85 µM (inactive), the GI50 (OVCAR-5) was 1.5 µM (inactive) and the GI50 (OVCAR-8) was 1.41 µM (inactive). For the same molecule, the GI50 (PC-3) was 1.45 µM (inactive), the GI50 (RPMI-8226) was 1.32 µM (inactive) and the GI50 (SF-268) was 2.65 µM (inactive). For the same molecule, the GI50 (SF-295) was 1.31 µM (inactive), the GI50 (SF-539) was 1.41 µM (inactive) and the GI50 (SK-MEL-28) was 1.63 µM (inactive). The GI50 (SK-MEL-2) was 2 µM (inactive), the GI50 (SK-MEL-5) was 1.66 µM (inactive) and the GI50 (SK-OV-3) was 1.58 µM (inactive). The GI50 (SN12C) was 1.65 µM (inactive), the GI50 (SNB-19) was 2.33 µM (inactive) and the GI50 (SNB-75) was 2.17 µM (inactive). For the same molecule, the GI50 (SW-620) was 1.87 µM (inactive), the GI50 (T47D) was 1.76 µM (inactive) and the GI50 (TK-10) was 1.52 µM (inactive). The GI50 (U-251) was 1.48 µM (inactive), the GI50 (UACC-257) was 1.84 µM (inactive) and the GI50 (UACC-62) was 1.75 µM (inactive). The GI50 (UO-31) was 1.86 µM (inactive).
In the case of `C/C=C(C)/C=C/CC(C)CCC=C(C)C` (stereo unspecified), the GI50 (786-0) is reported as > 100 µM (inactive), the GI50 (A498) is reported as > 100 µM (inactive) and the GI50 (A549) is reported as > 100 µM (inactive). The GI50 (ACHN) was > 100 µM (inactive), the GI50 (BT-549) was > 100 µM (inactive) and the GI50 (CAKI-1) was > 100 µM (inactive). For the same molecule, the GI50 (CCRF-CEM) was > 100 µM (inactive), the GI50 (COLO 205) was > 100 µM (inactive) and the GI50 (DU-145) was > 100 µM (inactive). The GI50 (EKVX) was > 100 µM (inactive), the GI50 (HCT-116) was > 100 µM (inactive) and the GI50 (HCT-15) was > 100 µM. For the same molecule, the GI50 (HL-60) was 44.5 µM (inactive), the GI50 (HOP-92) was > 100 µM (inactive) and the GI50 (HT-29) was > 100 µM (inactive). For the same molecule, the GI50 (IGROV-1) was > 100 µM (inactive), the GI50 (K562) was > 100 µM (inactive) and the GI50 (KM12) was > 100 µM (inactive). The GI50 (LOX IMVI) was > 100 µM (inactive), the GI50 (M14) was > 100 µM (inactive) and the GI50 (MCF7) was > 100 µM (inactive). For the same molecule, the GI50 (MDA-MB-231) was > 100 µM (inactive), the GI50 (MDA-MB-435) was > 100 µM (inactive) and the GI50 (MDA-N) was > 100 µM (inactive). For the same molecule, the GI50 (MOLT-4) was > 100 µM (inactive), the GI50 (NCI-H226) was > 100 µM (inactive) and the GI50 (NCI-H460) was > 100 µM (inactive). The GI50 (NCI/ADR-RES) was > 100 µM (inactive), the GI50 (OVCAR-3) was > 100 µM (inactive) and the GI50 (OVCAR-4) was 92.9 µM (inactive). For the same molecule, the GI50 (OVCAR-5) was > 100 µM (inactive), the GI50 (OVCAR-8) was > 100 µM (inactive) and the GI50 (RXF 393) was > 100 µM (inactive). The GI50 (SF-295) was > 100 µM (inactive), the GI50 (SF-539) was > 100 µM (inactive) and the GI50 (SK-MEL-28) was > 100 µM (inactive). For the same molecule, the GI50 (SK-MEL-2) was > 100 µM (inactive), the GI50 (SK-MEL-5) was > 100 µM (inactive) and the GI50 (SK-OV-3) was > 100 µM (inactive). For the same molecule, the GI50 (SN12C) was > 100 µM (inactive), the GI50 (SNB-19) was > 100 µM (inactive) and the GI50 (SNB-75) was > 100 µM (inactive). The GI50 (SR) was > 100 µM (inactive), the GI50 (SW-620) was > 100 µM (inactive) and the GI50 (TK-10) was > 100 µM (inactive). The GI50 (U-251) was > 100 µM (inactive), the GI50 (UACC-257) was > 100 µM (inactive) and the GI50 (UACC-62) was > 100 µM (inactive). For the same molecule, the GI50 (UO-31) was > 100 µM (inactive).

From ChEMBL document CHEMBL1201862, “PubChem BioAssay data set” (2004)
